Experimental data taken from ChEMBL document CHEMBL1201862, “PubChem BioAssay data set” (2004).
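Five concentrations, 48 hours, 96-well plates. Here, GI50 denotes the concentration required for 50% inhibition of growth.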 Activity calls are given as the source filed them. No stated cut-off is given here; in the data, active = GI50 up to about 1.1 µM and inactive = higher.

Experiments:
Test in all cases: inhibition of tumour cell growth, NCI panel, 48 h
MDA-N = system: MDA-N
NCI-H460 = system: NCI-H460
MOLT-4 = system: MOLT-4
MDA-MB-231 = system: MDA-MB-231
HT-29 = system: HT-29
SK-MEL-2 = system: SK-MEL-2
ACHN = system: ACHN
HL-60 = system: HL-60
A549 = system: A549
CCRF-CEM = system: CCRF-CEM
Hs-578T = system: Hs-578T
OVCAR-3 = system: OVCAR-3
UACC-257 = system: UACC-257
CAKI-1 = system: CAKI-1
SN12C = system: SN12C
SR = system: SR
IGROV-1 = system: IGROV-1
U-251 = system: U-251
HOP-92 = system: HOP-92
SNB-75 = system: SNB-75

Measured: GI50

COc1cc(OC)c2nc(C)c3c(c2c1)SCC3
inactive: MDA-N 28.8 µM | NCI-H460 23.7 µM | MOLT-4 > 100 µM | MDA-MB-231 21.1 µM | HT-29 40.6 µM | SK-MEL-2 27.7 µM | ACHN 18.7 µM | HL-60 78 µM | A549 21.1 µM | CCRF-CEM > 100 µM | Hs-578T 19.8 µM | OVCAR-3 19.2 µM | UACC-257 31.7 µM | CAKI-1 16.1 µM | SN12C 25.5 µM | SR 20.5 µM | IGROV-1 17.2 µM | U-251 29.8 µM

COc1cc(Cc2nccc3cc(OC)c(OC)cc23)c(C(C)=O)cc1OC
inactive: HOP-92 150 µM | MDA-N 28.2 µM | SNB-75 3.09 µM | MDA-MB-231 78.5 µM | HT-29 199 µM | SK-MEL-2 226 µM | ACHN 153 µM | HL-60 59.7 µM | A549 > 300 µM | OVCAR-3 34.5 µM | CAKI-1 > 300 µM | SN12C 1.76 µM | SR > 750 µM | IGROV-1 173 µM | U-251 2.54 µM

O=C(O)CCCn1nnc2c(=O)[nH][nH]c(=O)c21
inactive: HOP-92 > 100 µM | MDA-N > 100 µM | NCI-H460 > 100 µM | MOLT-4 > 100 µM | MDA-MB-231 > 100 µM | HT-29 > 100 µM | SK-MEL-2 > 100 µM | ACHN > 100 µM | HL-60 > 100 µM | A549 > 100 µM | CCRF-CEM > 100 µM | OVCAR-3 > 100 µM | UACC-257 > 100 µM | CAKI-1 > 100 µM | SN12C > 100 µM | SR > 100 µM | U-251 > 100 µM

CC(C)(O)C1CC[C@]2(C)[C@H]3CC[C@@H]4[C@@]5(C)CCCC(C)(C)[C@@H]5CC[C@@]4(C)[C@]3(C)CC[C@@H]12 (stereo partly specified)
inactive: HOP-92 > 100 µM | MDA-N > 100 µM | NCI-H460 > 100 µM | MOLT-4 > 100 µM | MDA-MB-231 > 100 µM | HT-29 > 100 µM | SK-MEL-2 > 100 µM | ACHN > 100 µM | HL-60 > 100 µM | A549 > 100 µM | CCRF-CEM > 100 µM | Hs-578T > 100 µM | OVCAR-3 > 100 µM | UACC-257 > 100 µM | CAKI-1 > 100 µM | SN12C > 100 µM | IGROV-1 > 100 µM | U-251 > 100 µM

c1ccc2c(c1)SC1=C(SC(=C3SC4=C(S3)Sc3ccccc3S4)S1)S2
inactive: HOP-92 > 100 µM | MDA-N > 100 µM | SNB-75 49.4 µM | NCI-H460 > 100 µM | MOLT-4 > 100 µM | MDA-MB-231 > 100 µM | HT-29 > 100 µM | SK-MEL-2 > 100 µM | ACHN > 100 µM | HL-60 > 100 µM | A549 > 100 µM | CCRF-CEM > 100 µM | Hs-578T 23.3 µM | OVCAR-3 > 100 µM | UACC-257 > 100 µM | CAKI-1 > 100 µM | SN12C > 100 µM | IGROV-1 > 100 µM | U-251 > 100 µM

O=C(CCCn1ccnc1[N+](=O)[O-])NCCn1cnc([N+](=O)[O-])c1
inactive: MDA-N > 100 µM | SNB-75 > 100 µM | NCI-H460 > 100 µM | MOLT-4 > 100 µM | HT-29 > 100 µM | SK-MEL-2 > 100 µM | ACHN > 100 µM | HL-60 > 100 µM | A549 > 100 µM | CCRF-CEM > 100 µM | Hs-578T > 100 µM | OVCAR-3 > 100 µM | UACC-257 > 100 µM | CAKI-1 > 100 µM | SN12C > 100 µM | SR > 100 µM | IGROV-1 > 100 µM | U-251 > 100 µM

CCOC(=O)c1c(O)nc(O)c(CC)c1C
inactive: HOP-92 > 100 µM | MDA-N > 100 µM | SNB-75 > 100 µM | NCI-H460 > 100 µM | MOLT-4 > 100 µM | MDA-MB-231 > 100 µM | HT-29 > 100 µM | SK-MEL-2 > 100 µM | ACHN > 100 µM | HL-60 > 100 µM | A549 > 100 µM | CCRF-CEM > 100 µM | Hs-578T > 100 µM | OVCAR-3 > 100 µM | UACC-257 > 100 µM | CAKI-1 > 100 µM | SN12C > 100 µM | IGROV-1 > 100 µM | U-251 > 100 µM

CC(=O)N1c2ccccc2Sc2cc(C(O)(C(F)(F)F)C(F)(F)F)ccc21
inactive: HOP-92 4.66 µM | MDA-N > 10 µM | SNB-75 9.59 µM | NCI-H460 > 10 µM | MOLT-4 > 10 µM | MDA-MB-231 > 10 µM | HT-29 > 10 µM | SK-MEL-2 > 10 µM | ACHN > 10 µM | HL-60 > 10 µM | A549 > 10 µM | CCRF-CEM > 10 µM | Hs-578T > 10 µM | OVCAR-3 > 10 µM | UACC-257 > 10 µM | CAKI-1 > 10 µM | SN12C > 10 µM | IGROV-1 > 10 µM | U-251 > 10 µM

NNC(=O)c1nn[nH]c1SSc1[nH]nnc1C(=O)NN
inactive: HOP-92 > 100 µM | MDA-N > 100 µM | SNB-75 > 100 µM | NCI-H460 > 100 µM | MOLT-4 > 100 µM | MDA-MB-231 > 100 µM | HT-29 > 100 µM | SK-MEL-2 > 100 µM | ACHN > 100 µM | HL-60 > 100 µM | A549 > 100 µM | CCRF-CEM > 100 µM | Hs-578T > 100 µM | OVCAR-3 > 100 µM | UACC-257 > 100 µM | CAKI-1 > 100 µM | SN12C > 100 µM | IGROV-1 > 100 µM | U-251 > 100 µM

NC1CCN(c2nc3ccccc3c3c2CCCC3)CC1
inactive: HOP-92 4.99 µM | MDA-N 2.97 µM | SNB-75 9.93 µM | NCI-H460 3.5 µM | MOLT-4 2.09 µM | MDA-MB-231 3.43 µM | HT-29 2.11 µM | SK-MEL-2 5.12 µM | ACHN 8.87 µM | HL-60 1.77 µM | A549 9.44 µM | CCRF-CEM 4.28 µM | Hs-578T 20.5 µM | OVCAR-3 11.9 µM | UACC-257 2.1 µM | CAKI-1 5.77 µM | SN12C 8.67 µM | IGROV-1 6.41 µM | U-251 4.59 µM

O=S(=O)(O)c1ccc(/N=N/c2ccc3c(S(=O)(=O)O)cccc3c2O)c2ccccc12
inactive: HOP-92 > 100 µM | MDA-N > 100 µM | SNB-75 > 100 µM | MDA-MB-231 > 100 µM | HT-29 > 100 µM | SK-MEL-2 > 100 µM | ACHN > 100 µM | A549 > 100 µM | Hs-578T > 100 µM | OVCAR-3 > 100 µM | UACC-257 > 100 µM | CAKI-1 > 100 µM | SN12C > 100 µM | IGROV-1 > 100 µM | U-251 > 100 µM
